From patent US9957264B2 (Merck Sharp & Dohme Corp., priority 2013, dated 2018)

Legend:
[1] = biological target: JAK2 (recombinant purified GST-tagged catalytic domain) (Homo sapiens (Human), UniProt O60674); assay: Jak Biochemical HTRF Assay (JAK2); conditions: [ATP] 8.5 μM
[2] = biological target: JAK1 (recombinant purified GST-tagged catalytic domain) (Homo sapiens (Human), UniProt P23458); assay: Jak Biochemical HTRF Assay (JAK1); conditions: [ATP] 31.8 μM
Summary of the method: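 GST-tagged human catalytic domains of JAK1 or JAK2 phosphorylated a biotinylated peptide substrate for 120 min at room temperature after ATP addition. Reaction quenched with EDTA stop buffer containing streptavidin-Dylight 650 and Eu-pY20 antibody; HTRF 665/615 nm ratio normalized to untreated controls, IC50 from 4-parameter fit.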

JAK2 (recombinant purified GST-tagged catalytic domain), sequence (O60674 849-1124): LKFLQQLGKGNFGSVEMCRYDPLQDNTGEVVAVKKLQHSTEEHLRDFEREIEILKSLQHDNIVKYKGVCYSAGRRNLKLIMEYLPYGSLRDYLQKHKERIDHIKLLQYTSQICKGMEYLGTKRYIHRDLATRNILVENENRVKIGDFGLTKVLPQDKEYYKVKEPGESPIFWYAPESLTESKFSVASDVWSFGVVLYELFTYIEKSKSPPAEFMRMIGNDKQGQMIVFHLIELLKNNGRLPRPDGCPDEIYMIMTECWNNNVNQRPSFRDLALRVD
JAK1 (recombinant purified GST-tagged catalytic domain), sequence (P23458 875-1153): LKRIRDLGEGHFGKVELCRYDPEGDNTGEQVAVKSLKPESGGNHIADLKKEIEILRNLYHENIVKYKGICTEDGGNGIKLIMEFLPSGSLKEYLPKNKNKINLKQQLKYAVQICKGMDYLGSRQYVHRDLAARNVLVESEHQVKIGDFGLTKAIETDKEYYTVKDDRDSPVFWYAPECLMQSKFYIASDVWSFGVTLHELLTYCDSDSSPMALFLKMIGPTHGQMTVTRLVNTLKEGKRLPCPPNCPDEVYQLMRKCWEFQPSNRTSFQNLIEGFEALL

SMILES	IC50 [1]	IC50 [2]
Cc1cc(Nc2nn(C3(CC#N)CCN(C(=O)OC(C)(C)C)CC3)c3cc[nH]c(=O)c23)ccc1C(=O)N1CC2CCC(C1)O2 [Example 21-12, tert-butyl-4-(3-((4-(8-oxa-3-azabicyclo[3.2.1]octane-3-carbonyl)-3-methylphenyl)amino)-4-oxo-4,5-dihydro-1H-pyrazolo[4,3-c]pyridin-1-yl)-4-(cyanomethyl)piperidine-1-carboxylate]	0.18 nM	0.26 nM
CC(C)(C)OC(=O)[C@@H]1CC[C@@](CC#N)(n2nc(Nc3ccc(Cn4nccn4)cc3)c3c(=O)[nH]ccc32)CO1 [Example 5-97, (2S,5S)-tert-butyl 5-(3-((4-((2H-1,2,3-triazol-2-yl)methyl)phenyl)amino)-4-oxo-4,5-dihydro-1H-pyrazolo[4,3-c]pyridin-1-yl)-5-(cyanomethyl) tetrahydro-2H-pyran-2-carboxylate]	0.14 nM	0.09 nM
CC(C)(C)OC(=O)N1CCC(CC#N)(n2nc(Nc3ccc(F)cc3)c3c(=O)[nH]ccc32)CC1 [Example 5-48, tert-butyl 4-(cyanomethyl)-4-{3-[(4-fluorophenyl)amino]-4-oxo-4,5-dihydro-1H-pyrazolo[4,3-c]pyridin-1-yl}piperidine-1-carboxylate]	2.26 nM	0.22 nM
N#CCC1(n2nc(Nc3ccc(S(=O)(=O)C(F)F)cc3)c3c(=O)[nH]ccc32)CCN(c2ccc(C#N)cn2)CC1 [Example 15-3, 6-(4-(cyanomethyl)-4-(3-((4((difluoromethyl)sulfonyl)phenyl)amino)-4-oxo-4,5-dihydro-1H-pyrazolo[4,3-c]pyridin-1-yl)piperidin-1-yl)nicotinonitrile]	0.26 nM	0.25 nM
COC(=O)N1CCC(CC#N)(n2nc(Nc3ccc4c(c3)CN(CC3CCCC3)S4(=O)=O)c3c(=O)[nH]ccc32)CC1 [Example 5-75, methyl 4-(cyanomethyl)-4-(3-{[2-(cyclopentylmethyl)-1,1-dioxo-2,3-dihydro-1,2-benzothiazol-5-yl]amino}-4-oxo-1H,4H,5H-pyrazolo [4,3-c]pyridin-1-yl) piperidine-1-carboxylate]	0.37 nM	0.12 nM

The next lines start with the values.

IC50 [1]	IC50 [2]	SMILES
1.96 nM	0.23 nM	CN(C)S(=O)(=O)c1ccc(Nc2nn(C3(CC#N)CCN(C(=O)c4cccc(Cl)c4)CC3)c3cc[nH]c(=O)c23)cc1 [Example 9-14, 4-[(1-{1-[(3-chlorophenyl)carbonyl]-4-(cyanomethyl)piperidin-4-yl}-4-oxo-4,5-dihydro-1H-pyrazolo[4,3-c]pyridin-3-yl)amino]-N,N-dimethylbenzenesulfonamide]
0.34 nM	0.28 nM	CCOC(=O)C(C)(C)C(O)(c1ccc(Nc2nn([C@]3(CC#N)CCCOC3)c3cc[nH]c(=O)c23)cc1)C(F)(F)F (single isomer, unassigned) [Example 5-113, (S or R)-ethyl 3-(4-((1-((3S)-3-(cyanomethyl)tetrahydro-2H-pyran-3-yl)-4-oxo-4,5-dihydro-1H-pyrazolo[4,3-c]pyridin-3-yl)amino)phenyl)-4,4,4-trifluoro-3-hydroxy-2,2-dimethylbutanoate]
> 1500 nM	67.6 nM	CC(C)(C)OC(=O)N1CCC(CC#N)(n2nc(NC3CCC3)c3c(=O)[nH]ccc32)CC1 [Example 2-3, tert-butyl 4-(cyanomethyl)-4-[3-(cyclobutylamino)-4-oxo-4,5-dihydro-1H-pyrazolo[4,3-c]pyridin-1-yl]piperidine-1-carboxylate]
0.08 nM	0.09 nM	CC(C)(C)OC(=O)N1CC[C@](CC#N)(n2nc(Nc3ccc(S(C)(=O)=O)cc3)c3c(=O)[nH]ccc32)[C@H](F)C1 [Example 5-17, tert-butyl (3R,4R)-4-(cyanomethyl)-3-fluoro-4-(3-{[4-(methylsulfonyl)phenyl]amino}-4-oxo-4,5-dihydro-1H-pyrazolo [4,3-c]pyridin-1-yl) piperidine-1-carboxylate]
